From patent publication US20250136593A1, “DEGRADATION AGENT AND USE THEREOF” (HITGEN INC., priority 2021, published 2025)
pIC50: −log10 of the molar value.

What was measured:
[1] = biological target: ternary complex between BCL-XL and CRBN-DDB1 (Homo sapiens, UniProt Q07817+Q96SW2); experiment: Compound-induced formation of ternary complex between BCL-XL and CRBN-DDB1 by AlphaLISA; assay type: biochemical; design: key: the number of + indicates the intensity of AlphaLISA peak signal; ++: the number of + indicates the intensity of AlphaLISA peak signal; +++: the number of + indicates the intensity of AlphaLISA peak signal; ++++: the number of + indicates the intensity of AlphaLISA peak signal; +++++: the number of + indicates the intensity of AlphaLISA peak signal; conditions: peak signal; 60 nM Strep-BCL-XL and 60 nM His-CRBN/DDB1
ternary complex between BCL-XL and CRBN-DDB1, sequence (Q07817 whole entry): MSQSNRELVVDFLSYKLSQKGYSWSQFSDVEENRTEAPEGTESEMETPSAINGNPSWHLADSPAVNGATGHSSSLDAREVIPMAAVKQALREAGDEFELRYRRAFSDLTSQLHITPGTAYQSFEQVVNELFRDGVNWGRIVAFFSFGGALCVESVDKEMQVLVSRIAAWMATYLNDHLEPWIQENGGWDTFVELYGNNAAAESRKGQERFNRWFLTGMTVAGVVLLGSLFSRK
ternary complex between BCL-XL and CRBN-DDB1, sequence (Q96SW2 whole entry): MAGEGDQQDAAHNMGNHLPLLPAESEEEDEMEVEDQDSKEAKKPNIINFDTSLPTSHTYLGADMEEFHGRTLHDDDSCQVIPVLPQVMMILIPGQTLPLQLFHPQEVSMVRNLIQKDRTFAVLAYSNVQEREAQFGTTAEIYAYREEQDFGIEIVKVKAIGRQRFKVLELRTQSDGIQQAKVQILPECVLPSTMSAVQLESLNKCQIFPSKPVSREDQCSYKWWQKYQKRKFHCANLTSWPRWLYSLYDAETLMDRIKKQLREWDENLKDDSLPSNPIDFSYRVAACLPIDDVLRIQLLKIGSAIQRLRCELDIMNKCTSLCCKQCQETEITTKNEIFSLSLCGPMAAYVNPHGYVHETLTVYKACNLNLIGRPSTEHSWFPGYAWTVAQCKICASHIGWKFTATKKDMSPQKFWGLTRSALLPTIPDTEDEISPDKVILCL
ternary complex between BCL-XL and CRBN-DDB1, sequence (Q16531 whole entry partner): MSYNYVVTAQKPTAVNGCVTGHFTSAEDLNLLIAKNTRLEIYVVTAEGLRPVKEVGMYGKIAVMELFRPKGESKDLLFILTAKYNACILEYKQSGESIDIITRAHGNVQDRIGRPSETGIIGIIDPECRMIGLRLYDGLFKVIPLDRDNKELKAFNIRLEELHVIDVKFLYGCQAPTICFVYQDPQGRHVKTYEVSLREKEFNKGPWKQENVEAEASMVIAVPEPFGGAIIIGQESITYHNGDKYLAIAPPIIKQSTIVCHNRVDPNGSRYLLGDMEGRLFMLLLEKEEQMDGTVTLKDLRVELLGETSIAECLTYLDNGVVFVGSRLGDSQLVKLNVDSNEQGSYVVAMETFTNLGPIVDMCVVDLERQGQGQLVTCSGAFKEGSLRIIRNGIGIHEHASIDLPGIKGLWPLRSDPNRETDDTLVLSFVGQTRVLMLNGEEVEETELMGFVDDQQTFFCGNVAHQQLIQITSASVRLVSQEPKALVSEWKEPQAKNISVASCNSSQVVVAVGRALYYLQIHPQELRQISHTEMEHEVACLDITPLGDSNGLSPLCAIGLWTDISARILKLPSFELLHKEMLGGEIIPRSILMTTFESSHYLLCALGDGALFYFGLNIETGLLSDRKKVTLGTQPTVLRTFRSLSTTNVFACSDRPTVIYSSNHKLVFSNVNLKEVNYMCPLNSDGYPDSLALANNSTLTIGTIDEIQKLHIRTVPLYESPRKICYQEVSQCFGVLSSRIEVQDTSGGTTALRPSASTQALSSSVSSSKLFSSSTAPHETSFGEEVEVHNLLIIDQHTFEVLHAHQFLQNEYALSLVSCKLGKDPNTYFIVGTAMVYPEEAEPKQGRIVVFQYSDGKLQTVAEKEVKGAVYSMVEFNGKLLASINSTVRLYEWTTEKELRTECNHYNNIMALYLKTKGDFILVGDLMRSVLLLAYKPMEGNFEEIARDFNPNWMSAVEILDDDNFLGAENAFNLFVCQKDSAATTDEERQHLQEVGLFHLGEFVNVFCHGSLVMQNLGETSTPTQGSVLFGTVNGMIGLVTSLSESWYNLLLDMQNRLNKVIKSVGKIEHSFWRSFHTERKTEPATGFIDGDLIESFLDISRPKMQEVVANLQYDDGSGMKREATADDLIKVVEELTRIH
Method: Experimental Example 4, Detection of Compound-Induced Formation of Ternary Complex Between BCL-XL and CRBN-DDB1 by AlphaLISA Method
Na2HPO4(Sigma), NaH2PO4(Sigma), sodium chloride (Sigma), Tween-20 (Sigma), AlphaLISA®Nikel Chelate Acceptor beads (PerkinElmer), Strep-Tactin® Alpha Donor beads (PerkinElmer), Assay plate (Corning), Strep-BCl-XL (HitGen), His-CRBN/DDB1 (HitGen).
DMSO was used to dissolve the dry powder of the test compound to obtain a 10.00 mM solution. The instrument ECHO was used to perform gradient dilution of the compound, which was then added to a 384-well reaction plate (Corning, Cat #3824), so that the final concentration of DMSO in the entire reaction system (10.0 μL) was less than 1%, and the same amount of DMSO was added and used as a control.
Strep-BCl-XL and His-CRBN/DDB1 proteins were dissolved in buffer (10 mM NaH2PO4, 40 mM Na2HPO4, 150 mM sodium chloride, 0.03% Tween20, pH=7.4) to obtain a protein mixture of 60 nM Strep-BCL-XL and 60 nM His-CRBN/DDB1, the protein mixture (5ul/well) was added to the 384-well plate in which the compound had been added, and incubated at room temperature for 30 minutes, then 5 μl of a detection mixture with 50 μg/ml AlphaLISA®Nikel Chelate Acceptor beads and 50 μg/ml Strep-Tactin® Alpha Donor beads was added, and incubated at room temperature for 2 hours; and then a microplate reader was used to detect AlphaLISA signal.
Fifth order polynomial or Sixth order polynomial in Polynomial of Graphpad 6.0 was used for data fitting.

[2] = system: MOLT-4 cells; experiment: Inhibitory activity on MOLT4 cell proliferation by Cell Titer-Glo method; assay type: cell-based; conditions: Homo sapiens, 72 hours incubation, read-out: IC50 concentration for inhibiting MOLT-4 cells
Method: Experimental Example 5, Evaluation Experiment of Inhibitory Activity of Compound on MOLT4 Cell Proliferation by Cell Titer-Glo Method
RPMI medium modified (Hyclone), FBS (Corning), Dimethyl Sulfoxide, P/S, CellTiter-Gbo Luminescent Cell Viability Assay (Promega), MOLT-4 cell (ATCC).
MOLT-4 cells were cultured in monolayer in vitro in an incubator containing 5% CO2 air at 37° C. The culture medium was RPMI 1640 with 10% FBS and 1% P/S. 15 μL of MOLT4 cells, containing 5×10^4 cells per ml, was inoculated to a 384-well plate (Corning, 3707), 750 cells/well, and incubated at 37° C. and 5% CO2 for 30 minutes. Then the compound that had been diluted in advance was added, with a total of 9 concentration points, and 2 parallel repetitions for each concentration point. The cell growing group without adding the compound was used as a negative control (maximum signal control), and the culture medium group was used as a blank control (minimum signal control). At the same time, it was ensured that the final DMSO content in each reaction well was 0.1%. The compound and the cells were incubated in a cell culture incubator at 37° C., 5% CO2 for 3 days (72 hours).
The 384-well plate was taken out from the cell culture incubator and allowed to stand at room temperature, equilibrated for 20 to 30 minutes, and then 25 μl of Cell Titer-Glo detection reagent was added to each reaction well, lysed on a shaker for 2 minutes, incubated for 10 minutes, and BMG PHERAStar (Luminescence) was used for reading.
The inhibition rate was calculated based on the luminescence signals: the average value of the negative control (maximum signal control) and the blank control (minimum signal control) was first calculated, then the inhibition rates of the compound at different concentrations for the cells were calculated as follows:
The IC50 of the compound to inhibit cell activity was calculated by fitting with GraphPad Prism 6 using log(inhibitor) vs. response−Variable slope mode. The fitting equation was: Y=Bottom+(Top−Bottom)/(1+10^((LogIC50−X)*HillSlope)), wherein Y represented the inhibition rate and X represented the known compound concentration after Log.

Row | AlphaLISA signal (PROTAC ternary complex signal intensity) [1] | pIC50 [2] | SMILES
1 | ++ | 4.00 to 4.30 | CNc1nc(-c2cnc3ccccc3c2)nc2c1CCN(C(=O)c1ccc(COc3ccc(C#CCN4CCN(C(=O)CCCn5cc(COCCOCCNc6cccc7c6C(=O)N(C6CCC(=O)NC6=O)C7=O)nn5)CC4)cc3)cc1)C2 (stereo not drawn) [A]
2 | ++++ | 4.00 to 4.30 | C=Cc1cc(-c2nc3c(c(NC)n2)CCN(C(=O)c2ccc(COc4ccc(C#CCN5CCN(CCCCNc6cccc7c6C(=O)N(C6CCC(=O)NC6=O)C7=O)CC5)cc4)cc2)C3)cnc1C=C (stereo not drawn) [Compound C2-2]
3 | +++++ | 3.70 to 4.00 | C=Cc1cc(-c2nc3c(c(NC)n2)CCN(C(=O)c2ccc(COc4ccc(C#CCN5CCN(CCCCCNc6cccc7c6C(=O)N(C6CCC(=O)NC6=O)C7=O)CC5)cc4)cc2)C3)cnc1C=C (stereo not drawn) [Compound C2-3]
4 | + | – | C=Cc1cc(-c2nc3c(c(NC)n2)CCN(C(=O)c2ccc(COc4ccc(C#CCN5CCN(CCCOc6cccc7c6C(=O)N(C6CCC(=O)NC6=O)C7=O)CC5)cc4)cc2)C3)cnc1C=C (stereo not drawn) [Compound C3-14]
5 | + | – | C=Cc1cc(-c2nc3c(c(NC)n2)CCN(C(=O)c2ccc(COc4ccc(C#CCN5CCN(CCCCOc6cccc7c6C(=O)N(C6CCC(=O)NC6=O)C7=O)CC5)cc4)cc2)C3)cnc1C=C (stereo not drawn) [Compound C3-15]
6 | ++++ | 4.00 to 4.30 | C=Cc1cc(-c2nc3c(c(NC)n2)CCN(C(=O)c2ccc(COc4ccc(C#CCN5CCN(CCCCCOc6cccc7c6C(=O)N(C6CCC(=O)NC6=O)C7=O)CC5)cc4)cc2)C3)cnc1C=C (stereo not drawn) [Compound C3-16]
7 | ++++ | 4.00 to 4.30 | C=Cc1cc(-c2nc3c(c(NC)n2)CCN(C(=O)c2ccc(COc4ccc(C#CCN5CCN(CCCCCCOc6cccc7c6C(=O)N(C6CCC(=O)NC6=O)C7=O)CC5)cc4)cc2)C3)cnc1C=C (stereo not drawn) [Compound C3-17]
8 | +++ | – | C=Cc1cc(-c2nc3c(c(NC)n2)CCN(C(=O)c2ccc(COc4ccc(C#CCN5CCN(CCCCCCCCOc6cccc7c6C(=O)N(C6CCC(=O)NC6=O)C7=O)CC5)cc4)cc2)C3)cnc1C=C (stereo not drawn) [Compound C3-18]

More lines, now with the values behind:

Row | SMILES | AlphaLISA signal (PROTAC ternary complex signal intensity) [1] | pIC50 [2]
9 | C=Cc1cc(-c2ncc3c(n2)CN(C(=O)c2ccc(/C=C/c4ccc(C#CCN5CCN(CCCCCOc6cccc7c6C(=O)N(C6CCC(=O)NC6=O)C7=O)CC5)cc4)cc2)CC3)cnc1C=C (stereo not drawn) [Compound C3-2] | + | 3.70 to 4.00
10 | C/C=c1/cc(-c2ncc3c(n2)CN(C(=O)c2ccc(/C=C/c4ccc(C#CCN5CCN(CCCCCOc6cccc7c6CN(C6CCC(=O)NC6=O)C7=O)CC5)cc4)cc2)CC3)cn/c1=C/C (stereo not drawn) [Compound C3-4] | + | 3.70 to 4.00
11 | C/C=c1/cc(-c2nc3c(c(NC)n2)CCN(C(=O)c2ccc(/C=C/c4ccc(C#CCN5CCN(CCCCCOc6cccc7c6CN(C6CCC(=O)NC6=O)C7=O)CC5)cc4)cc2)C3)cn/c1=C/C (stereo not drawn) [Compound C3-5] | ++ | 3.70 to 4.00
12 | C=Cc1cc(-c2nc3c(c(NC)n2)CCN(C(=O)c2ccc(/C=C/c4ccc(C#CCN5CCN(CCCCCOc6cccc7c6C(=O)N(C6CCC(=O)NC6=O)C7=O)CC5)cc4)cc2)C3)cnc1C=C (stereo not drawn) [Compound C3-6] | + | 4.00 to 4.30
13 | O=C1CCC(N2Cc3c(C#CCCCN4CCN(CC#Cc5ccc(/C=C/c6ccc(C(=O)N7CCc8cnc(-c9cnc%10ccccc%10c9)nc8C7)cc6)cc5)CC4)cccc3C2=O)C(=O)N1 (stereo not drawn) [Compound D2-4] | + | 3.70 to 4.00
14 | CNc1nc(-c2cnc3ccccc3c2)nc2c1CCN(C(=O)c1ccc(/C=C/c3ccc(C#CCN4CCN(CCCC#Cc5cccc6c5CN(C5CCC(=O)NC5=O)C6=O)CC4)cc3)cc1)C2 (stereo not drawn) [Compound D2-6] | ++ | 3.70 to 4.00
15 | C=Cc1cc(-c2ncc3c(n2)CN(C(=O)c2ccc(/C=C/c4ccc(C#CCN5CCN(C6CCN(CC#Cc7cccc8c7CN(C7CCC(=O)NC7=O)C8=O)CC6)CC5)cc4)cc2)CC3)cnc1C=C (stereo not drawn) [Compound E1-2] | ++ | 4.00 to 4.30
16 | O=C1CCC(N2Cc3c(OC4CC5(C4)CN(C4CCN(CC#Cc6ccc(/C=C/c7ccc(C(=O)N8CCc9cnc(-c%10cnc%11ccccc%11c%10)nc9C8)cc7)cc6)CC4)C5)cccc3C2=O)C(=O)N1 (stereo not drawn) [Compound F3B-2] | ++ | 4.00 to 4.30
17 | CNc1nc(-c2cnc3ccccc3c2)nc2c1CCN(C(=O)c1ccc(/C=C/c3ccc(C#CCN4CCN(CCCCC(=O)N[C@H](C(=O)N5C[C@H](O)C[C@H]5C(=O)NCc5ccc(-c6scnc6C)cc5)C(C)(C)C)CC4)cc3)cc1)C2 [Compound G1-4] | + | –
18 | CNc1nc(-c2cnc3ccccc3c2)nc2c1CCN(C(=O)c1ccc(/C=C/c3ccc(C#CCN4CCN(CCCCCC(=O)N[C@H](C(=O)N5C[C@H](O)C[C@H]5C(=O)NCc5ccc(-c6scnc6C)cc5)C(C)(C)C)CC4)cc3)cc1)C2 [Compound G1-5] | ++ | < 3.70
19 | CNc1nc(-c2cnc3ccccc3c2)nc2c1CCN(C(=O)c1ccc(/C=C/c3ccc(C#CCN4CCN(C(=O)CCC(=O)N[C@H](C(=O)N5C[C@H](O)C[C@H]5C(=O)N[C@@H](C)c5ccc(-c6scnc6C)cc5)C(C)(C)C)CC4)cc3)cc1)C2 [Compound G2-2] | + | –
20 | CNc1nc(-c2cnc3ccccc3c2)nc2c1CCN(C(=O)c1ccc(/C=C/c3ccc(C#CCN4CCN(C(=O)CCCC(=O)N[C@H](C(=O)N5C[C@H](O)C[C@H]5C(=O)NCc5ccc(-c6scnc6C)cc5)C(C)(C)C)CC4)cc3)cc1)C2 [Compound G2-3] | + | –
21 | CNc1nc(-c2cnc3ccccc3c2)nc2c1CCN(C(=O)c1ccc(/C=C/c3ccc(C#CCN4CCN(C(=O)CCCCC(=O)N[C@H](C(=O)N5C[C@H](O)C[C@H]5C(=O)NCc5ccc(-c6scnc6C)cc5)C(C)(C)C)CC4)cc3)cc1)C2 [Compound G2-4] | + | –
22 | CNc1nc(-c2cnc3ccccc3c2)nc2c1CCN(C(=O)c1ccc(/C=C/c3ccc(C#CCN4CCN(C(=O)CCCCCC(=O)N[C@H](C(=O)N5C[C@H](O)C[C@H]5C(=O)NCc5ccc(-c6scnc6C)cc5)C(C)(C)C)CC4)cc3)cc1)C2 [Compound G2-5] | + | –
23 | CNc1nc(-c2cnc3ccccc3c2)nc2c1CCN(C(=O)c1ccc(/C=C/c3ccc(C#CCN4CCN(C(=O)CCCCCCC(=O)N[C@H](C(=O)N5C[C@H](O)C[C@H]5C(=O)NCc5ccc(-c6scnc6C)cc5)C(C)(C)C)CC4)cc3)cc1)C2 [Compound G2-6] | + | –
24 | CNc1nc(-c2cnc3ccccc3c2)nc2c1CCN(C(=O)c1ccc(/C=C/c3ccc(C#CCN4CCN(C(=O)CCCCCCCCC(=O)N[C@H](C(=O)N5C[C@H](O)C[C@H]5C(=O)N[C@@H](C)c5ccc(-c6scnc6C)cc5)C(C)(C)C)CC4)cc3)cc1)C2 [Compound G2-7] | + | –
25 | CNc1nc(-c2cnc3ccccc3c2)nc2c1CCN(C(=O)c1ccc(/C=C/c3ccc(C#CCN4CCN(CCCCC(=O)N[C@H](C(=O)N5C[C@H](O)C[C@H]5C(=O)N[C@@H](C)c5ccc(-c6scnc6C)cc5)C(C)(C)C)CC4)cc3)cc1)C2 [Compound G3-1] | + | –
